# Measured values reported in patent US8592175B2, “Nitroreductase enzymatic substrates” (bioMérieux, S.A., priority 2009, dated 2013).
# Experiments:
# Test in all cases: Color, fluorescence and growth of colonies on Columbia medium with nitroreductase substrate
# Assay type in all cases: cell-based
# Conditions in all cases: 40 mg substrate in 400 ml Columbia medium, 24 hours at 37° C.
# [1] = system: Listeria monocytogenes NCTC 11 994; set-up: key to Growth: NG: no growth; 0.5: low growth; 1: moderate growth; 2: good growth; key to Fluo.: fluorescence of the colonies / Col.: color of the colonies: —: no color/fluorescence
# Protocol: (§1) 40 mg of each of the substrates were dissolved in 4 ml of dimethylsulfoxide and added to 400 ml of previously autoclaved Columbia medium. The 5 media were distributed in Petri dishes 90 mm in diameter at the rate of 20 ml per dish. Seventeen strains of microorganisms obtained from collections and belonging to various species of bacteria and yeasts are inoculated as spots of about 10 000 colony forming units. The media are incubated for 24 hours at 37° C. and then the colonies formed are examined visually and under a UV lamp at 365 nm.
# [2] = system: Bacillus subtilis NCTC 9 372; set-up: key to Growth: NG: no growth; 0.5: low growth; 1: moderate growth; 2: good growth; key to Fluo.: fluorescence of the colonies / Col.: color of the colonies: —: no color/fluorescence
# Protocol: as §1
# [3] = system: Streptococcus pyogenes NCTC 8 306; set-up: key to Growth: NG: no growth; 0.5: low growth; 1: moderate growth; 2: good growth; key to Fluo.: fluorescence of the colonies / Col.: color of the colonies: —: no color/fluorescence
# Protocol: as §1
# [4] = system: Salmonella typhimurium NCTC 74; set-up: key to Growth: NG: no growth; 0.5: low growth; 1: moderate growth; 2: good growth; key to Fluo.: fluorescence of the colonies / Col.: color of the colonies: —: no color/fluorescence
# Protocol: as §1
# [5] = system: Enterococcus faecalis NCTC 775; set-up: key to Growth: NG: no growth; 0.5: low growth; 1: moderate growth; 2: good growth; key to Fluo.: fluorescence of the colonies / Col.: color of the colonies: —: no color/fluorescence
# Protocol: as §1
# [6] = system: Candida albicans ATCC 90 028; set-up: key to Growth: NG: no growth; 0.5: low growth; 1: moderate growth; 2: good growth; key to Fluo.: fluorescence of the colonies / Col.: color of the colonies: —: no color/fluorescence
# Protocol: as §1
# [7] = system: Enterococcus faecium NCTC 7 171; set-up: key to Growth: NG: no growth; 0.5: low growth; 1: moderate growth; 2: good growth; key to Fluo.: fluorescence of the colonies / Col.: color of the colonies: —: no color/fluorescence
# Protocol: as §1
# [8] = system: Staphylococcus aureus NCTC 6 571; set-up: key to Growth: NG: no growth; 0.5: low growth; 1: moderate growth; 2: good growth; key to Fluo.: fluorescence of the colonies / Col.: color of the colonies: —: no color/fluorescence
# Protocol: as §1
# [9] = system: Providencia rettgeri NCTC 7 475; set-up: key to Growth: NG: no growth; 0.5: low growth; 1: moderate growth; 2: good growth; key to Fluo.: fluorescence of the colonies / Col.: color of the colonies: —: no color/fluorescence
# Protocol: as §1
# [10] = system: Candida glabrata NCPF 3 943; set-up: key to Growth: NG: no growth; 0.5: low growth; 1: moderate growth; 2: good growth; key to Fluo.: fluorescence of the colonies / Col.: color of the colonies: —: no color/fluorescence
# Protocol: as §1
# [11] = system: Pseudomonas aeruginosa NCTC 10 662; set-up: key to Growth: NG: no growth; 0.5: low growth; 1: moderate growth; 2: good growth; key to Fluo.: fluorescence of the colonies / Col.: color of the colonies: —: no color/fluorescence
# Protocol: as §1
# [12] = system: Staphylococcus epidermidis NCTC 11 047; set-up: key to Growth: NG: no growth; 0.5: low growth; 1: moderate growth; 2: good growth; key to Fluo.: fluorescence of the colonies / Col.: color of the colonies: —: no color/fluorescence
# Protocol: as §1
# [13] = system: Staphylococcus aureus NCTC 11 939; set-up: key to Growth: NG: no growth; 0.5: low growth; 1: moderate growth; 2: good growth; key to Fluo.: fluorescence of the colonies / Col.: color of the colonies: —: no color/fluorescence
# Protocol: as §1
# [14] = system: Yersinia enterocolitica NCTC 11 176; set-up: key to Growth: NG: no growth; 0.5: low growth; 1: moderate growth; 2: good growth; key to Fluo.: fluorescence of the colonies / Col.: color of the colonies: —: no color/fluorescence
# Protocol: as §1
# [15] = system: Serratia marcescens NCTC 10 211; set-up: key to Growth: NG: no growth; 0.5: low growth; 1: moderate growth; 2: good growth
# Protocol: as §1
# [16] = system: Escherichia coli NCTC 10 418; set-up: key to Growth: NG: no growth; 0.5: low growth; 1: moderate growth; 2: good growth
# Protocol: as §1
# [17] = system: Enterobacter cloacae NCTC 11 936; set-up: key to Growth: NG: no growth; 0.5: low growth; 1: moderate growth; 2: good growth
# Protocol: as §1
structure (smiles),measurement,setting,value
"C[n+]1ccc(C=Cc2ccc([N+](=O)[O-])cc2)c2ccccc21.[I-] [4NSMQ^+I, 4-(4′-nitrostyryl)-N-methylquinolinium iodide]",Growth,[1],1
same,Fluo.: fluorescence of the colonies,[1]; UV lamp at 365 nm,—
same,Col.: color of the colonies,[1]; examined visually,Rust
same,Growth,[2],NG
same,Fluo.: fluorescence of the colonies,[2]; UV lamp at 365 nm,—
same,Col.: color of the colonies,[2]; examined visually,—
same,Growth,[3],NG
same,Fluo.: fluorescence of the colonies,[3]; UV lamp at 365 nm,—
same,Col.: color of the colonies,[3]; examined visually,—
same,Growth,[4],1
same,Fluo.: fluorescence of the colonies,[4]; UV lamp at 365 nm,—
same,Growth,[5],1
same,Fluo.: fluorescence of the colonies,[5]; UV lamp at 365 nm,—
same,Col.: color of the colonies,[5]; examined visually,Rust
same,Growth,[6],NG
same,Fluo.: fluorescence of the colonies,[6]; UV lamp at 365 nm,—
same,Col.: color of the colonies,[6]; examined visually,—
same,Growth,[7],1
same,Fluo.: fluorescence of the colonies,[7]; UV lamp at 365 nm,—
same,Col.: color of the colonies,[7]; examined visually,Rust
same,Growth,[8],NG
same,Fluo.: fluorescence of the colonies,[8]; UV lamp at 365 nm,—
same,Col.: color of the colonies,[8]; examined visually,—
same,Growth,[9],2
same,Fluo.: fluorescence of the colonies,[9]; UV lamp at 365 nm,—
same,Col.: color of the colonies,[9]; examined visually,Rust e
same,Growth,[10],0.5
same,Fluo.: fluorescence of the colonies,[10]; UV lamp at 365 nm,—
same,Col.: color of the colonies,[10]; examined visually,—
same,Growth,[11],2
same,Fluo.: fluorescence of the colonies,[11]; UV lamp at 365 nm,—
same,Growth,[12],1
same,Fluo.: fluorescence of the colonies,[12]; UV lamp at 365 nm,—
same,Col.: color of the colonies,[12]; examined visually,—
same,Growth,[13],NG
same,Fluo.: fluorescence of the colonies,[13]; UV lamp at 365 nm,—
same,Col.: color of the colonies,[13]; examined visually,—
same,Growth,[14],1
same,Fluo.: fluorescence of the colonies,[14]; UV lamp at 365 nm,—
same,Col.: color of the colonies,[14]; examined visually,Rust
same,Growth,[15],2
same,Growth,[16],2
same,Growth,[17],2
same,Col.: color of the colonies,[17]; examined visually,Rust
